The nature of series [1]: Pharmacokinetic study in rats after oral administration of CUT and MP-NPs, plasma by UHPLC-MS/MS. The settings on record: male, Sprague Dawley, in vivo, n = 6, mean ± SD. The procedure: An Agilent 6430 triple quadrupole mass spectrometer with an ESI source interface (Agilent Technologies, Santa Clara, CA, United States) was used in conjunction with an Agilent 1290 UHPLC system (Agilent Technologies). A Waters ACQUITY HSS T3 Column (1.8 μm, 2.1 × 100 mm) (Waters, Manchester, UK) was also used for the separations. Gradient elution was performed using water (A) and methanol (B) as mobile phases. The gradient elution procedure was used for 0.0–1.0 min, 80%–80% B; 1.0–1.5 min, 80%–90% B; 1.5–3.0 min, 90%–90% B; 3.0–3.2 min, 90%–80% B; and 3.2–4 min, 80%–80% B. The analytical temperature was 35 °C, and the flow rate was 0.3 mL/min. An injection of 5 μL volume was administered, after which the needle was washed. Positive ion-mode analysis was performed for the samples. The capillary voltage was set to 4500 V, source temperature to 100 °C, and the desolvation temperature to 350 °C ([Wang et al., 2014]). High-purity nitrogen was used as the nebulizing gas, and nitrogen was used as the drying gas at a flow rate of 11 L/min. The Agilent Mass Hunter workstation was used to gather the experimental data ([Wang Z et al., 2023]).
A total of 12 male Sprague Dawley (SD) rats (weight: 220 ± 20 g) were provided by the Animal Experiment Center of Heilongjiang University of Traditional Chinese Medicine (Production license number: SYXK (Hei) 2021-010). The Laboratory Animal Ethics Committee of Heilongjiang University of Traditional Chinese Medicine approved the study (Approval No.: 2024053114).
Animals were randomly assigned to the following two experimental groups (n = 6 per group): CUT and MP-NPs. Treatments were administered once daily for seven consecutive days, with the plasma sampling performed at predetermined time points after administration. Dosage was calculated based on human-equivalent doses converted to rat pharmacokinetic parameters using interspecies scaling factors. The human-rat dose conversion procedure was used to determine the dose of CUT per rat to be 0.03 g. The recommended daily dosage for humans is 6 tablets. The dose of MP-NPs per rat was determined to be 0.06 g per rat using the human-rat dose conversion formula, whereas the dose of P. Melo for human usage was 3 g, with reference to the Pharmacopoeia of the People’s Republic of China 2025.
At 0.083, 0.25, 0.50, 1, 1.5, 2, 2.5, 3, 4, 6, 8, 12, and 24 h following oral administration of CUT and MP-NPs, 0.25 mL of plasma samples were sampled by rapidly collecting and centrifuging at 4 °C, followed by freezing at −20 °C for further analysis ([Yu et al., 2023]).
Blank plasma sample (100 μL) was vortexed for 60 s after adding 100 μL of IS. To guarantee complete extraction, 3 mL of dichloromethane was then added to each sample, followed by vortexing for 120 s. Subsequently, the samples were centrifuged for 10 min at 4 °C and 3,500 rpm. At 40 °C, the […] organic phase was carefully moved into a sterile tube, dried off with a mild stream of nitrogen gas, and then reconstituted in 100 μL of the original mobile phase. Following a 120 s vortex, the extracts were filtered through a 0.22 μm Millipore filter before subjecting them to quantitative analyses by injecting 5 μL of them into the UHPLC-MS/MS apparatus.
The established UHPLC-MS/MS method was applied to simultaneously measure the plasma concentrations of the three analytes in rats following dose administration. Pharmacokinetic parameters have attracted attention in exploring drug absorption and distribution. These parameters include T 1/2, C max, T max, and AUC (Table 6). The pharmacokinetics of SD rats following oral administration of CUT and MP-NPs were investigated through UHPLC-MS/MS. The plasma concentrations of the three analytes were calculated. […] The MP-NPs group reached C max more rapidly than the CUT group.

The nature of series [2]: Stability of the analytes in rat plasma under different storage conditions. The series is classed as in vitro ADME. As to conditions: for Stability (RE%) Post-preparative / Stability (RE%) Short-term / Stability (RE%) Long-term / Stability (RE%) Freeze-thaw: rat plasma, n = 6; for Stability (RE%) Post-preparative / Stability in rat plasma (in words): 12 h at 4 °C post-sample preparation; for Stability (RE%) Short-term: ambient temperature (25 °C) for 4 h; for Stability (RE%) Long-term / Stability in rat plasma (in words): storage at −20 °C; for Stability (RE%) Freeze-thaw: three freeze-thaw cycles (−20 °C/room temperature); for Stability in rat plasma (in words): 25 °C for 4 h, three freeze-thaw cycles. The text has this:
Table 5 outlines the stability of LQC, MQC, and HQC in the rat plasma under different storage conditions.

Where [3] appears, read: CUT group, oral cucurbitacin tablet 0.03 g per rat.
The mark [4] stands for this setting: MP-NPs group, oral MP-NPs(PVP-K30) 0.06 g per rat.
Setting [5] is: HQC (spiked 300.2 CuB, 600.2 CuD, 300.8 CuE ng/mL).
The mark [6] stands for this setting: LQC (spiked 5.272 CuB, 25.30 CuD, 5.257 CuE ng/mL).
[7] abbreviates: MQC (spiked 150.1 CuB, 300.1 CuD, 150.4 CuE ng/mL).

As for `CC(=O)OC(C)(C)/C=C/C(=O)[C@](C)(O)[C@H]1[C@H](O)C[C@@]2(C)[C@@H]3CC=C4[C@@H](C=C(O)C(=O)C4(C)C)[C@]3(C)C(=O)C[C@]12C` [CuE, cucurbitacin E], in series [1] (setting [3]), the AUC(0-inf) is 682 ± 126 ng·h/mL, the AUC(0-t) stood at 603 ± 125 ng·h/mL, the Cmax came to 166 ± 13.8 ng/mL and the Tmax was 2.25 ± 0.521 h. The half-life in series [1] (setting [3]) was 5.99 ± 1.23 h. In addition, in series [1] (setting [4]), the AUC(0-inf) was 973 ± 269 ng·h/mL, the AUC(0-t) was 752 ± 150 ng·h/mL, the Cmax is 236 ± 31.9 ng/mL and the Tmax worked out at 1.67 ± 0.612 h. In series [1] (setting [4]), this compound gave a half-life of 7.05 ± 2.7 h. Further, in series [2] (setting [5]), the “Stability (RE%) Post-preparative” value is given as −8.572%, the “Stability (RE%) Short-term” value is given as −3.143%, the “Stability (RE%) Long-term” value is on record as −3.035% and the “Stability (RE%) Freeze-thaw” value is −1.361%. Also, in series [2] (setting [6]), the “Stability (RE%) Post-preparative” value came out at 6.711%, the “Stability (RE%) Short-term” value worked out at 6.050%, the “Stability (RE%) Long-term” value amounted to 8.213% and the “Stability (RE%) Freeze-thaw” value was determined as 7.947%. For the same compound, in series [2] (setting [7]), the “Stability (RE%) Post-preparative” value was −2.053%, the “Stability (RE%) Short-term” value is on record as −4.192%, the “Stability (RE%) Long-term” value came to 5.814% and the “Stability (RE%) Freeze-thaw” value is given as 1.424%. The “Stability in rat plasma (in words)” value in series [2] is “remained stable”.
Take `CC(C)(O)/C=C/C(=O)[C@](C)(O)[C@H]1[C@H](O)C[C@@]2(C)[C@@H]3CC=C4[C@@H](C[C@H](O)C(=O)C4(C)C)[C@]3(C)C(=O)C[C@]12C` [CuD, cucurbitacin D]: in series [1] (setting [3]), the AUC(0-inf) is 1160 ng·h/mL, the area under the curve AUC(0-t) stood at 1030 ng·h/mL, the highest level (Cmax) was 339 ± 24.4 ng/mL and the time of peak concentration (Tmax) amounted to 1.83 ± 0.683 h. This compound also showed a half-life in series [1] (setting [3]) of 5.33 ± 0.991 h. In addition, in series [1] (setting [4]), the area under the curve AUC(0-inf) was 1480 ng·h/mL, the area under the curve AUC(0-t) was determined as 1260 ng·h/mL, the Cmax stood at 365 ± 69.9 ng/mL and the time to peak (Tmax) was 1.75 ± 0.61 h. Moreover, in series [1] (setting [4]), the half-life is 6.97 ± 2.92 h. In addition, in series [2] (setting [5]), the “Stability (RE%) Post-preparative” value is given as 7.032%, the “Stability (RE%) Short-term” value is on record as −5.861%, the “Stability (RE%) Long-term” value is listed as −2.272% and the “Stability (RE%) Freeze-thaw” value is recorded as −7.765%. Also, in series [2] (setting [6]), the “Stability (RE%) Post-preparative” value is −3.854%, the “Stability (RE%) Short-term” value is listed as 4.262%, the “Stability (RE%) Long-term” value was 5.336% and the “Stability (RE%) Freeze-thaw” value is listed as −3.242%. Further, in series [2] (setting [7]), the “Stability (RE%) Post-preparative” value is given as −8.805%, the “Stability (RE%) Short-term” value is −4.154%, the “Stability (RE%) Long-term” value is −5.533% and the “Stability (RE%) Freeze-thaw” value is given as −8.420%. Besides, the “Stability in rat plasma (in words)” value in series [2] is “remained stable”.

In general, AUC(0-inf) refers to the area under the concentration-time curve extrapolated to infinity. The AUC(0-t) is exposure summed from dosing to a finite time, without extrapolation to infinity. Lower therefore signals less exposure. In general, Cmax refers to the peak of the concentration-time curve. As usually defined, the Tmax is the time from dosing to the highest level. By half-life is commonly meant the time needed for the level to fall by half in the phase considered. High values mean slow decline, low ones rapid decline.

(Values after PMC12457114, “Comparison of the pharmacokinetic profiles of three triterpenoids after oral administration of a cucurbitacin tablet and nanosuspension by UHPLC-MS/MS” (Frontiers in Pharmacology, 2025).)
